“Also recorded” adds a separate entry of the source.
Legend:
[1] = target: T1, latent 20S core proteasome, PGPH peptidase (Homo sapiens, UniProt P25787+P60900); experiment: Post glutamyl peptide hydrolyzing (PGPH) peptidase activity of the core proteasome; format: biochemical
T1 construct: purified from erythrocytes; purchased Boston Biochem, Inc. or Enzo Life Sciences, Inc; host or cells: human erythrocytes
Protocol: (§1) Determination of Proteasome Activity. Human housekeeping core (20S) proteasome purified from erythrocytes was purchased from Boston Biochem, Inc. (Cambridge, Mass.) or from Enzo Life Sciences, Inc. (Farmingdale, N.Y.). Multiple batches of the proteasomes were used and performed reproducibly. The stock proteasome was diluted to 0.2 mg/mL working solution in “dilution buffer” (50 mM Tris/HCl, pH 8, 20% glycerol). The following model peptide substrates, releasing fluorescent 7-amino-4-methylcoumarin (AMC) reporter group after cleavage, were used: succinyl-LeuLeuValTyr-AMC (SEQ ID NO: 14) (for the ChT-L peptidase; SucLLVY-AMC; Bachem Bioscience Inc., Philadelphia, Pa.), butoxycarbonyl-LeuArgArg-AMC (T-L; Bachem Bioscience Inc., Philadelphia, Pa.) and carbobenzoxy-LeuLeuGlu-AMC (PGPH; Enzo Life Sciences Inc., Farmingdale, N.Y.). […] After mixing, the plate was transferred to a Fluoroskan Ascent plate reader (Thermo Fisher Scientific Inc., Waltham, Mass.) for 1 h (37° C.), with fluorescence readouts once per minute. […] The reaction rates were calculated from a linear segment of kinetic curves constructed from measurements in 1-min intervals. Reaction rates were calculated using a linear fit performed with the Slope Analyser and Enzyme Kinetics applications launched within Origin Pro 2019 (OriginLab Corporation, Northampton, Mass.). […]

[2] = target: T2, proteasome ChT-L activity in SK-N-SH (ATCC HTB-11) cells (Homo sapiens, UniProt P25787+P60900); experiment: ChT-L proteasome activity in lysates of SK-N-SH cells treated with TAT peptides; format: cell-based; settings: for proteasome ChT-L activity in lysates from treated cells vs control lysates: 1 μM, 24 h
T2 construct: host or cells: SK-N-SH human neuroblastoma cells
Protocol: Cell Culture. Human SK-N-SH neuroblastoma cell line (ATCC® HTB-11™ American Type Culture Collection; Manassas, Va.) were cultured according to ATCC specifications (EMEM, 10% heat-inactivated FBS) The cells at passage 2-4 were treated with 1 μM TAT peptides or the DMSO vehicle diluted with the medium 1: 1000, for 24 h. The content of live cells was determined by the Trypan Blue-exclusion assay. The cells were harvested, washed twice in PBS, resuspended in dilution buffer (as described herein) and stored in −80° C. To prepare lysates, the thawed preparations were vortexed with glass beads and centrifuged for 5 min 5,000×g (4° C.). The supernatant was centrifuged for 20 min 14,000×g (4° C.). The resulting supernatant—“crude lysate” was diluted to 1 mg/mL of total protein with dilution buffer. 1 μg of lysate per assay (reaction buffer: 50 mM Tris/HCl pH 8, 0.1 mM MgCl2, 0.2 mM ATP, 0.1 mM dithiothreitol, 50 μM Suc-LLVY-AMC (SEQ ID NO: 14)) was used for determination of ChT-L activity in a 96-well format, as above.

[3] = tested on: Elav-gs-GAL4>UAS-APP; UAS-BACE1 flies; experiment: Olfaction aversion training in fly AD model; format: in vivo, Drosophila melanogaster; settings: 1 μM mixed into food, 10 days
Protocol: Olfactory aversion training. Experiments were performed broadly (Malik, B. R. & Hodge, J. J. J Vis Exp, e50107, doi:10.3791/50107 (2014)). Animals were exposed (via an air pump) in alternation to two neutral odors (3-octanol and 4-methylcyclohexanol, prepared as a 1/10 dilution in mineral oil) for 5 minutes under low red-light and a 100V 60 Hz shock was applied during exposure to one of the two odors. The odor associated with the electric shock was alternated between vials. After three training rounds per odor, animals were given one hour to recover then placed in a T-maze (Celexplorer labs) with opposing odors from either side. Flies were allowed two minutes to explore the maze after which the maze sections were sealed and the number of flies in each chamber scored.
The compounds were tested as follows: in neuroblast MC65 cell culture model with overexpressed C99 fragment of amyloid precursor protein (APP) upon tetracycline withdrawal or with external APP added; and in fruit fly (D. melanogaster) model of AD with overexpressed APP and BACE1. The compounds (1 μM) were mixed with food. Flies were trained to recognize “positive” and “negative” odors (olfaction aversion). The compounds were also treated in hAPP (J20) mice which overexpress a familial variant of APP. The compounds were injected for 14 days (1 mg/kg). Novel Object Recognition assay was used to test learning and memory.

[4] = target: T3, latent 20S core proteasome, T-L peptidase (Homo sapiens, UniProt P25787+P60900); experiment: Trypsin-like (T-L) peptidase activity of the core proteasome; format: biochemical
T3 construct: purified from erythrocytes; purchased Boston Biochem, Inc. or Enzo Life Sciences, Inc; host or cells: human erythrocytes
Protocol: as §1

SMILES	effect on PGPH activity [1]	proteasome ChT-L activity in lysates from treated cells vs control lysates [2]	olfaction aversion training performance [3]	effect on trypsin-like (T-L) activity [4]	dose and time dependence of proteasome activation in cells ([2]; 0.5 or 1.0 μM, four or 24 h)
NCCCCC(N)C(=O)NC(CCCCN)C(=O)NC(CCCCN)C(=O)Nc1cc(NC(=O)C(CCCCN)NC(=O)C(CCCCN)NC(=O)C(N)CCCCN)cc(C(=O)NC(CCCCN)C(=O)NC(CCCCN)C(=O)NC(CCCCN)C(=O)O)c1 (stereo not drawn) [(8)]	weak inhibitory effects; also recorded: did not seem to significantly affect	significantly higher than activity in control lysates	Improved performance in olfaction aversion training	weak inhibitory effects; also recorded: did not seem to significantly affect	
N=C(N)NCCCC(NC(=O)CN)C(=O)NC(CCCCN)C(=O)NC(CCCCN)C(=O)NC(CCCNC(=N)N)C(=O)NC(CCCNC(=N)N)C(=O)NC(CCC(N)=O)C(=O)N1Cc2ccccc2C[C@H]1C(=O)N1C(C(=O)NC(CCCNC(N)N)C(=O)N2CCCC2C(=O)NC(CO)C(=O)O)CC2CCCCC21 (stereo partly drawn) [(5), GRKKRRQ-TOD-RPS]	weak inhibitory effects; also recorded: did not seem to significantly affect	significantly higher than activity in control lysates	Improved performance in olfaction aversion training	weak inhibitory effects; also recorded: did not seem to significantly affect	substantially stronger after 4 h exposure than after 24 h
